Source: patent US20240299431A1, “NEW SYNTHETIC AGONISTS OF TLR4 RECEPTOR” (UNIVERSITÀ DEGLI STUDI DI MILANO - BICOCCA, priority 2021, published 2024)
Entries after “also recorded” stand apart in the source; their conditions may differ. Read-outs that look alike come from different tables or passages of the source.

Key:
human TLR4 = target: T1, human TLR4 (Homo sapiens, UniProt O00206+Q9Y6Y9); experiment: Inhibition of LPS-induced SEAP production in HEK-Blue hTLR4 cells (antagonism); format: cell-based
T1 construct: host or cells: HEK-Blue hTLR4 (HEK293-derived)

HEK-Blue Null cells = HEK-Blue Null cells SEAP reporter (lack the LPS receptors); format: cell-based, human
[1] = test system: C57Bl/6 mice immunized with chicken ovalbumin (OVA); experiment: OVA immunization, adjuvant activity (anti-OVA total IgG); format: in vivo; conditions: for anti-OVA total IgG after prime immunization compared to MPLA-OVA immunized animals / anti-OVA total IgG after prime immunization compared to OVA-immunized control: 21 days post immunization
Description: (§1) The ability of FP11 and FP112 to induce immune responses in vivo was compared to MPLA by evaluating antibody production in C57Bl/6 mice immunized with chicken ovalbumin (OVA) as a model antigen. Has been first evaluated the toxicity of FPs in a pilot experiment in which mice were injected subcutaneously with 10 μg of the FP11 and FP112. […] Next, mice were immunized with the tested adjuvants mixed with ovalbumin (OVA). The induction of antibody was evaluated 21 days post immunization.

[2] = Pilot in vivo toxicity of adjuvants in mice; design: species or system C57Bl/6 mice; conditions: 10 μg subcutaneously, over 7 days
Description: as §1

THP-1-X-Blue cells = experiment: MTT viability assay on differentiated THP-1-X-Blue cells; format: cell-based, human; conditions: THP-1-X-Blue macrophages; for cell viability at the highest concentration tested: 50 μM; for toxicity (MTT viability): 0.1-50 μM
Description: (§2) The toxicity of the compounds was evaluated by MTT viability assay (3-(4,5-dimethylthiazol-2-yl)-2,5-diphenyltetrazolium bromide).
A preliminary test to investigate the toxicity of this functionalized compound was performed, even though without a triplicate.

NF-kB [3] = experiment: THP-1-X Blue macrophages, NF-kB/AP-1 SEAP reporter; format: cell-based, human
Description: (§3) THP-1-X BIue™ cell lines, monocytes differentiated into macrophages following treatment with PMA 100 ng/mL, and RAW-BIue™ were used. Similarly to HEK-Blue cells, THP-1 X-Blue and […] stably express the SEAP reporter gene, under the control of transcription factors NF-kB and AP-1. The cells were treated as previously described.
FP200 activity was then assessed on human monocytes cell line THP-1-X-Blues, described before. Cells were treated with compounds FP11, FP112, FP20, FP200 and FP21 in increasing concentrations (0.1, 1, 10, 20 μM) and using MPLA (0.1-1-10 μM) and S-LPS (100 ng/mL) as a reference and positive receptor activation control, respectively.
Compound FP207, functionalized with MPA, was tested in vitro on human THP-1-XBlue cells to evaluate the NF-kB activation.

RAW-Blue = experiment: MTT viability assay on RAW-Blue cells; format: cell-based; conditions: mouse macrophage line RAW-Blue
Description: as §2

NF-kB [4] = experiment: RAW-Blue murine macrophages, NF-kB/AP-1 SEAP reporter; format: cell-based; conditions: RAW-blue line
Description: as §3

human TLR2 = target: T2, human TLR2 (Homo sapiens, UniProt O60603); experiment: HEK-Blue hTLR2 SEAP reporter assay; format: cell-based; conditions: HEK-Blue hTLR2 cells, compounds 0.1-25 μM; PAM2CSK4 positive control (1 ng/mL)
T2 construct: host or cells: HEK-Blue hTLR2 (HEK reporter cell line)
Text: HEK-BIue™ hTLR4 and HEK-BIue™ hTLR2 (InvivoGen) are cell lines designed to study the activation of human TLR4 and TLR2 receptors, respectively, by monitoring the activation of transcription factors NF-kB and AP-1. Stimulation with TLR4 ligands (in the case of HEK-Blue hTLR4) or with TLR2 ligands (in the case of HEK-Blue hTLR2) activates NF-kB and AP-1, inducing the production and release of the SEAP reporter gene (phosphatase secreted embryonic alkaline) in the extracellular environment. The analysis of the reporter gene was performed using the QUANTI-Blue™ colorimetric assay (InvivoGen), a substrate of SEAP, which generates a chromogenic product whose absorbance is read at 630 nm. […] The molecules were subsequently tested on the HEK-Blue hTLR2 cell line with the aim of excluding the activation of this receptor. In this regard, HEK-Blue hTLR2 cells were treated with the same compounds and at the same concentrations as the tests conducted previously and the compound PAM2CSK4 was used as a positive control for TLR2 activation.

[5] = test system: Hek-Blue, Raw-Blue, THP-1 cells; experiment: In vitro tests on Hek-Blue, Raw-Blue and THP-1 cells (summary statements); format: cell-based
[6] = test system: IL-1α, IL-1β, IL-6, TNF-α and IFNβ; conditions: cited from earlier work
[7] = test system: Hek-Blue, Raw-Blue, THP-1 cells; conditions: prior art section, cited from earlier work
TLR4 = conditions: both murine and human cells; cited from earlier work
[8] = tumour-affected patients; cited from earlier work
Escherichia coli = conditions: one dose one day prior to microbial inoculation; cited from earlier work
[9] = test system: interleukin-6 (IL-6), interleukin-8 (IL-8) and TNF-α; conditions: murine macrophages and neutrophil granulocytes; cited from earlier work

T2 sequence (O60603 21-784): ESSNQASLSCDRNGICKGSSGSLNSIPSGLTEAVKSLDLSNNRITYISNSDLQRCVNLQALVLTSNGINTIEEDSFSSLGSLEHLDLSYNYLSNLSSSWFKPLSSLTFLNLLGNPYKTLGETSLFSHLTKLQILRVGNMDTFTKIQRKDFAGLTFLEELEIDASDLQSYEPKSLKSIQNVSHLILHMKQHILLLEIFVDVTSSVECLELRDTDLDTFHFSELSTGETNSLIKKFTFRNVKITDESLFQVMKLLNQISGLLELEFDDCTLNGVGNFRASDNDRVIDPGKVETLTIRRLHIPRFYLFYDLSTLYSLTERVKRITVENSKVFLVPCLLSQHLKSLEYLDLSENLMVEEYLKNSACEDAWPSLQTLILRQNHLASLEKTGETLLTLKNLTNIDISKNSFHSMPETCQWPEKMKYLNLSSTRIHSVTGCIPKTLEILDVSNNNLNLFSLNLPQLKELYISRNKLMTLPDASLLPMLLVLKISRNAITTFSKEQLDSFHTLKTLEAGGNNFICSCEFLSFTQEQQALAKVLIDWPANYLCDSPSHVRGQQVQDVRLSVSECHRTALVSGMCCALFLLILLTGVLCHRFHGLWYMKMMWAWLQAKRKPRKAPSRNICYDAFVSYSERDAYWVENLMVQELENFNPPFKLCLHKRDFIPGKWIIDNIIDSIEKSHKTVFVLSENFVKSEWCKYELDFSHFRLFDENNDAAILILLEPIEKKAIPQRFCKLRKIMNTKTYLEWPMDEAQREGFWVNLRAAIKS
T1 sequence (O00206 24-839): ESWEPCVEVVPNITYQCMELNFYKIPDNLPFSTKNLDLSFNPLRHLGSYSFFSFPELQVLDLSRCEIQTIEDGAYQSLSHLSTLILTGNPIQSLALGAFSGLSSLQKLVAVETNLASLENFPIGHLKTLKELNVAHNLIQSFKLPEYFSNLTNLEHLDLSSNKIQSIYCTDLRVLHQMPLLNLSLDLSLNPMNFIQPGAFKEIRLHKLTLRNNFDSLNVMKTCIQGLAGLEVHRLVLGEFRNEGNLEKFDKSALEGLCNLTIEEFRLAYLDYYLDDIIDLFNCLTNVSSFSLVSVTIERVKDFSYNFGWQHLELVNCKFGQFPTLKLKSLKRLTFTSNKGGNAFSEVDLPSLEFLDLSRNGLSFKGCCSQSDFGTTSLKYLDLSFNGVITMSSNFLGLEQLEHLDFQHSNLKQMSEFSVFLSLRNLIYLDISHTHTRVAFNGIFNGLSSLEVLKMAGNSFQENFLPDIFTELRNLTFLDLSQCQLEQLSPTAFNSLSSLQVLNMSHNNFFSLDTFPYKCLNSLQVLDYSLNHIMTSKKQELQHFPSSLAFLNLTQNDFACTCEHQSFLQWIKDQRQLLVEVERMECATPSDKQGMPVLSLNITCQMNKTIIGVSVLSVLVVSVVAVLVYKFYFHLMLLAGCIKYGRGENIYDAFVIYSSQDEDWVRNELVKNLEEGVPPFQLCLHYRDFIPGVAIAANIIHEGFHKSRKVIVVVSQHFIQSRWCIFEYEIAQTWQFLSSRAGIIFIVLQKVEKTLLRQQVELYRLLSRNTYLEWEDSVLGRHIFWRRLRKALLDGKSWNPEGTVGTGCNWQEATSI
T1 sequence (Q9Y6Y9 17-160 limits assumed): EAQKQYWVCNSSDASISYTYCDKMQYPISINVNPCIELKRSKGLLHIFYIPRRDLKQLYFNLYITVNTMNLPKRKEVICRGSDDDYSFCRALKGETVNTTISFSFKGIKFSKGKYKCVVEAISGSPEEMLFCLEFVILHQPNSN

CCCCCCCCCCCCCC(=O)NC1C(OC(=O)CCCCCCCCCCCCC)[C@H](OC(=O)CCCCCCCCCCCCC)C(CO)O[C@H]1OP(=O)(O)O (some centres unmarked) [FP11]
inhibition of LPS-induced SEAP production (TLR4 antagonistic activity) (human TLR4): did not inhibit LPS-induced SEAP production
activity on HEK-Blue Null cells (HEK-Blue Null cells): lack of activity
anti-OVA total IgG after prime immunization compared to MPLA-OVA immunized animals [1]: significantly lower levels
anti-OVA total IgG after prime immunization compared to OVA-immunized control [1]: marginally higher levels
adverse effect on mice (local response at injection site, weight, alertness) [2]: no obvious adverse effect

CCCCCCCCCCCC(=O)NC1C(OC(=O)CCCCCCCCCCC)OC(CO)C(OP(=O)([O-])[O-])C1OC(=O)CCCCCCCCCCC.[Na+].[Na+] (centres unmarked) [FP20]
cell viability at the highest concentration tested (THP-1-X-Blue cells): decrease in cell viability
toxicity (MTT viability) (THP-1-X-Blue cells): non-toxic
concentration from which the compounds activate significantly (NF-kB [3]): 10 µM
toxicity (MTT viability) (RAW-Blue; 50 μM): increase in the toxicity
lowest concentration tested at which the compounds are active (NF-kB [4]): 0.1 µM
activation of TLR2 (SEAP) (human TLR2): did not produce any activation

CCCCCCCCCCCCCC(=O)OC1OC(CO)C(OP(=O)([O-])[O-])C(OC(=O)CCCCCCCCCCCCC)C1NC(=O)CCCCCCCCCCC.[Na+].[Na+] (centres unmarked) [FP21]
toxicity (MTT viability) (THP-1-X-Blue cells): non-toxic
concentration from which the compounds activate significantly (NF-kB [3]): 10 µM
toxicity (MTT viability) (RAW-Blue; 50 μM): increase in the toxicity
lowest concentration tested at which the compounds are active (NF-kB [4]): 0.1 µM
activation of TLR2 (SEAP) (human TLR2): did not produce any activation

CCCCCCCCCC(=O)NC1C(OC(=O)CCCCCCCCC)OC(CO)C(OP(=O)([O-])[O-])C1OC(=O)CCCCCCCCC.[Na+].[Na+] (centres unmarked) [FP22]
toxicity (MTT viability) (THP-1-X-Blue cells): non-toxic
toxicity (MTT viability) (RAW-Blue; 50 μM): increase in the toxicity

CCCCCCCCCCCCCC(=O)NC1C(OC(=O)CCCCCCCCCCCCC)OC(CO)C(OP(=O)([O-])[O-])C1OC(=O)CCCCCCCCCCCCC.[Na+].[Na+] (centres unmarked) [FP23]
cell viability at the highest concentration tested (THP-1-X-Blue cells): decrease in cell viability
toxicity (MTT viability) (THP-1-X-Blue cells): non-toxic
toxicity (MTT viability) (RAW-Blue; 25 μM): show toxicity
toxicity (MTT viability) (RAW-Blue; 50 μM): increase in the toxicity
lowest concentration tested at which the compounds are active (NF-kB [4]): 0.1 µM
activation of TLR2 (SEAP) (human TLR2): did not produce any activation

CCCCCCCCCCCC(=O)NC1C(OC(=O)CCCCCCCCC)OC(CO)C(OP(=O)([O-])[O-])C1OC(=O)CCCCCCCCC.[Na+].[Na+] (centres unmarked) [FP24]
toxicity (MTT viability) (THP-1-X-Blue cells): non-toxic
concentration from which the compounds activate significantly (NF-kB [3]): 10 µM
toxicity (MTT viability) (RAW-Blue; 50 μM): increase in the toxicity
lowest concentration tested at which the compounds are active (NF-kB [4]): 0.1 µM
activation of TLR2 (SEAP) (human TLR2): did not produce any activation

CCCCCCCCCCCC(=O)NC1C(OP(=O)(O)O)OC(CO)C(OC(=O)CCCCCCCCCCC)C1OC(=O)CCCCCCCCCCC (centres unmarked) [FP112]
toxicity in vitro [5]: low toxicity
pro-inflammatory activity ([5]; 10 μM): good pro-inflammatory activy
inhibition of LPS-induced SEAP production (TLR4 antagonistic activity) (human TLR4): did not inhibit LPS-induced SEAP production
activity on HEK-Blue Null cells (HEK-Blue Null cells): lack of activity
release of proinflammatory cytokines [6]: able to stimulate the release of numerous proinflammatory cytokines
anti-OVA total IgG after prime immunization compared to MPLA-OVA immunized animals [1]: significantly lower levels
anti-OVA total IgG after prime immunization compared to OVA-immunized control [1]: marginally higher levels
ova-specific IgG levels after boost immunization ([1]; boost on day 22, examined 14 days later): higher than those in the FP11-immunized group
effectiveness/potency as vaccine adjuvant in vivo ([1]; compared to FP11 and MPLA): comparable to that of MPLA; also recorded: more effective adjuvant in vivo than FP11 and has a potency comparable or even greater than MPLA
pro-inflammatory activity ([7]; 10 μM): good pro-inflammatory activity
toxicity in vitro [7]: low toxicity
adverse effect on mice (local response at injection site, weight, alertness) [2]: no collateral damage; also recorded: no obvious adverse effect

CCCCCCCCCCCCCC(=O)OC(CCCCCCCCCCC)CC(=O)O[C@H]1[C@H](OP(=O)(O)O)[C@@H](CO)OC(O)[C@@H]1NC(=O)CC(O)CCCCCCCCCCC (some centres unmarked) [GLA60]
stimulation of TLR4-dependent production of cytokines TNF-α and IL-6 (TLR4): active

CCCCCCCCCCC[C@@H](O)CC(=O)N[C@H]1[C@@H](OP(=O)(O)O)O[C@H](CO)[C@@H](OC(=O)C[C@H](O)CCCCCCCCCCC)[C@@H]1OC(=O)C[C@H](O)CCCCCCCCCCC [SDZ MRL 953]
granulocyte counts and serum cytokine levels [8]: increases granulocyte counts and serum levels of G-CSF and interleukin-6 (IL-6), but not of pro-inflammatory cytokines TNF-α, IL-1b, and IL-8
safety and tolerability in humans [8]: safe and of excellent tolerability
effect on curative effects of antibiotics (Escherichia coli): dramatically increased the curative effects of antibiotics administered
stimulation of release of inflammatory cytokines [9]: potent activity

PAM2CSK4
activation of TLR2 (SEAP) (human TLR2): strong activation of TLR2
